Laboratory results: ChEMBL document CHEMBL6127026, “Design, synthesis and anti-HBV activity study of novel HBV capsid assembly modulators” (Bioorg Med Chem Lett, 2024)

Experiments:
[1] = Selectivity index, ratio of CC50 for human HePAD38 cells to EC50 for hepatitis B virus infected in HePAD38 cells; format: toxicity, cell-based; conditions: read-out: Ratio CC50/EC50
[2] = Cmax in male Beagle dog at 1.5 mg/kg, po administered via gavage and measured after 24 hrs by LC-MS/MS analysis; format: ADME, organism-based, Canis lupus familiaris; conditions: in vivo
[3] = Cytotoxicity against human HePAD38 cells by CCK8 assay; format: toxicity, cell-based
[4] = Octanol/water partition coefficient, log P of the compound; format: physicochemical
[5] = AUC (0 to infinity) in male Beagle dog at 1.5 mg/kg, po administered via gavage and measured after 24 hrs by LC-MS/MS analysis; format: ADME, organism-based, Canis lupus familiaris; conditions: in vivo
Hepatitis B virus = test: Antiviral activity against Hepatitis B virus infected in human HePAD38 cells assessed as inhibition of viral DNA replication by qPCR analysis; format: functional, organism-based
[6] = Metabolic stability in human liver microsomes assessed as parent compound remaining measured after 60 mins in absence of NADPH co-factor; format: ADME, Microsome; conditions: read-out: Stability
[7] = Metabolic stability in human liver assessed as intrinsic clearance; format: ADME, tissue-based; conditions: read-out: CLH
[8] = Metabolic stability in human plasma assessed as parent compound remaining measured immediately; format: ADME, cell-free; conditions: read-out: Stability
[9] = Metabolic stability in human plasma assessed as half-life; format: ADME, cell-free
[10] = Metabolic stability in human liver microsomes assessed as parent compound remaining measured after 60 mins in presence of NADPH co-factor; format: ADME, Microsome; conditions: read-out: Stability
[11] = Metabolic stability in human plasma assessed as parent compound remaining measured after 60 mins; format: ADME, cell-free; conditions: read-out: Stability
[12] = Metabolic stability in human liver microsomes assessed as intrinsic clearance; format: ADME, Microsome; conditions: read-out: CLH
Core antigen = Core antigen (Hepatitis B virus, UniProt Q03732); test: Inhibition of Hepatitis B virus Capsid protein assembly activity by fluorescence based analysis
Core antigen, sequence (Q03732 whole entry): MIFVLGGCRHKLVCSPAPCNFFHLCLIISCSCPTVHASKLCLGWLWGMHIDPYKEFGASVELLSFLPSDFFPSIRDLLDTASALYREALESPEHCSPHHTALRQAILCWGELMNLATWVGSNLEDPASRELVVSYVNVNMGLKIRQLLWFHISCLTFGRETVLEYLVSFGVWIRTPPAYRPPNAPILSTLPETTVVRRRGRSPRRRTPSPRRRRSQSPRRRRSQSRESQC

[13] = Metabolic stability in human liver microsomes assessed as half-life; format: ADME, Microsome
[14] = Metabolic stability in human plasma assessed as parent compound remaining measured after 10 mins; format: ADME, cell-free; conditions: read-out: Stability
[15] = Metabolic stability in human plasma assessed as parent compound remaining measured after 120 mins; format: ADME, cell-free; conditions: read-out: Stability
[16] = Metabolic stability in human plasma assessed as parent compound remaining measured after 30 mins; format: ADME, cell-free; conditions: read-out: Stability

SMILES | selectivity ratio [1] | CC50 [3] [µM] | EC50 (Hepatitis B virus) [µM] | other results
O=C(Nc1cc(F)c(F)c(F)c1)c1ccc(F)c(S(=O)(=O)N2CCC(O)CC2)c1 | 88.4 | 20.8 | 0.29 | Cmax [2]: 0.56 µg/mL; logP [4]: 1.75; AUC(0-inf) [5]: 3.5 µg·h/mL
O=C(c1cc(S(=O)(=O)NC2CCCC2)cc2c1OCCO2)N1CCC(O)CC1 | – | > 100 | > 20 | –
O=C(Nc1cc(F)c(F)c(F)c1)c1cc(S(=O)(=O)NC2CCCC2)cc2c1OCCO2 | > 419 | > 100 | 0.24 | remaining at 1 h [6]: 84.1%; CLint scaled [7]: 5.39 L/h/kg; remaining at 0 min [8]: 100%; half-life [9]: > 289 min; remaining at 1 h [10]: 5%; remaining at 1 h [11]: 115%; microsomal CLint [12]: 99.8 µL/min/mg; logP ([4]; read-out: logP): 1.59; IC50 (Core antigen): 1.45 µM; half-life [13]: 13.9 min; remaining at 10 min [14]: 115%; remaining at 2 h [15]: 99.4%; remaining at 0.5 h [16]: 112%
N#Cc1cc(NC(=O)c2cc(S(=O)(=O)NC3CCCC3)cc3c2OCCO3)ccc1F | > 65.3 | > 100 | 1.53 | –
O=C(Nc1cc(F)cc(F)c1)c1cc(S(=O)(=O)NC2CCCC2)cc2c1OCCO2 | > 232 | > 100 | 0.43 | –
O=C(NC1CCCC1)c1cc(S(=O)(=O)NC2CCCC2)cc2c1OCCO2 | – | > 100 | > 20 | –
O=C(Nc1ccc(F)cc1)c1cc(S(=O)(=O)NC2CCCC2)cc2c1OCCO2 | > 98.2 | > 100 | 1 | –
O=C(Nc1ccc(F)c(F)c1)c1cc(S(=O)(=O)NC2CCCC2)cc2c1OCCO2 | 89 | 81.4 | 0.91 | –
O=C(Nc1ccc(F)c(Cl)c1)c1cc(S(=O)(=O)NC2CCCC2)cc2c1OCCO2 | 95.5 | 48.2 | 0.5 | IC50 (Core antigen): 4.22 µM
O=C(Nc1ccc(F)c(Cl)c1)c1cc(S(=O)(=O)Nc2nccs2)cc2c1OCCO2 | – | > 100 | > 20 | –
Cc1cc(NC(=O)c2cc(S(=O)(=O)NC3CCCC3)cc3c2OCCO3)ccc1F | 104 | 51 | 0.49 | –
O=C(Nc1ccc(F)c(Cl)c1)c1cc(S(=O)(=O)Nc2ccsc2)cc2c1OCCO2 | > 116 | > 100 | 0.86 | –
O=C(Nc1ccc(F)c(Cl)c1)c1cc2c(c(S(=O)(=O)Nc3ccc(F)c(Cl)c3)c1)OCCO2 | 1.46 | 6.64 | 4.56 | –
O=C(NC1CCCC1)c1cc2c(c(S(=O)(=O)Nc3cc(F)c(F)c(F)c3)c1)OCCO2 | 2.79 | 20.5 | 7.36 | –
O=C(NC1CCCC1)c1cc(S(=O)(=O)Nc2cc(F)c(F)c(F)c2)cc2c1OCCO2 | – | > 100 | > 20 | –
O=C(NC1CCCC1)c1cc(S(=O)(=O)Nc2ccc(F)c(Cl)c2)cc2c1OCCO2 | > 93 | > 100 | 1.07 | –
O=C(NC1CCCC1)c1cc2c(c(S(=O)(=O)Nc3ccc(F)c(Cl)c3)c1)OCCO2 | – | > 100 | > 20 | –
O=C(O)Cc1ccccc1Nc1c(Cl)cccc1Cl [DICLOFENAC] | – | – | – | CLint scaled [7]: 13.9 L/h/kg
CC(C)[N+](C)(CCOC(=O)C1c2ccccc2Oc2ccccc21)C(C)C.[Br-] [PROPANTHELINE BROMIDE] | – | – | – | half-life [9]: 7.4 min; remaining at 1 h [11]: 0.4%; remaining at 10 min [14]: 52%; remaining at 0.5 h [16]: 8.3%
